# Test results reported in US9648876B2, “Method of inhibiting biofilm formation” (Research Foundation of the City University of New York, priority 2015, dated 2017).
# Read-outs that look alike come from different tables or passages of the source.
# What was measured:
# [1] = tested on: C. albicans early biofilms; type: cell-based, Candida albicans; settings: fluconazole at 32 μg per ml, FIG. 3
# Procedure: (§1) Candida albicans was subcultured onto Sabouraud dextrose agar (per liter: peptone 10 g, dextrose 40 g, agar 15 g; pH of 5.6) and incubated at 30° C. for 24 h. One colony was then added to yeast extract-peptone-dextrose (YPD; 1% yeast extract, 2% peptone, 2% dextrose) and incubated with shaking at 30° C. and 170 rpm for 16 h, after which cells were harvested, washed in phosphate-buffered saline (PBS), and diluted to a standard inoculum of 1.0×10^6 cells per ml.
# For biofilm assays in microtiter plates, 100 μl of a standard inoculum of C. albicans cells (1.0×10^6 cells per ml) was added to the wells of a 96-well plate in triplicate, and the cells were allowed to adhere for 90 min at 37° C. After incubation, the plates were washed twice with PBS to remove nonattached cells. Then 100 μl of RPMI 1640 with L-glutamine, without sodium bicarbonate (GIBCO®), buffered to pH 7.0 with 165 mM morpholinepropanesulfonic acid (MOPS) was added to each well, and the plates were incubated at 37° C. for 24 h. […]
# Menadione and XTT [2,3-bis-(2-methoxy-4-nitro-5-sulfophenyl)-2H-tetrazolium-5-carboxyanilide] were obtained from Sigma-Aldrich. […] The absorbance of wells at 490 nm was read using a microplate reader (Biotec/Synergy software). […]
# Biofilm viability was assayed by XTT reduction and calculated as follows: […]
# [2] = tested on: C. albicans mature biofilms; assay: Established (mature, 24-h) biofilm susceptibility (XTT reduction, LIVE/DEAD confocal microscopy)
# Procedure: LIVE/DEAD staining of the biofilm was performed and dead cells were quantified in confocal micrographs.
# as §1
# For biofilm assays in microtiter plates, 100 μl of a standard inoculum of C. albicans cells (1.0×10^6 cells per ml) was added to the wells of a 96-well plate in triplicate, and the cells were allowed to adhere for 90 min at 37° C. After incubation, the plates were washed twice with PBS to remove nonattached cells. Then 100 μl of RPMI 1640 with L-glutamine, without sodium bicarbonate (GIBCO®), buffered to pH 7.0 with 165 mM morpholinepropanesulfonic acid (MOPS) was added to each well, and the plates were incubated at 37° C. for 24 h. Early-stage biofilms were prepared essentially as above, with the exception that the cells were induced to form biofilms for either 3 or 6 h prior to treatment.
# Fluconazole was obtained from Sigma. All drugs were dissolved in dimethyl sulfoxide (DMSO).
# Menadione and XTT [2,3-bis-(2-methoxy-4-nitro-5-sulfophenyl)-2H-tetrazolium-5-carboxyanilide] were obtained from Sigma-Aldrich. After a drug challenge, the wells were washed twice with PBS, and then 100 μl of XTT-menadione solution was added to the wells, and plates incubated in the dark for 1 h at 37° C. The absorbance of wells at 490 nm was read using a microplate reader (Biotec/Synergy software).
# Candida albicans biofilms were treated with or without test compounds for various times, depending on the experimental design, after which the cells were prepared for microscopy by staining with the BacLight yeast viability kit, the contents of which include Syto-9 and propidium iodide (Molecular Probes, Eugene, Oreg.) according to the manufacturer's instructions. Confocal images were obtained using an Olympus FluoView10i microscope and a filter set for Syto-9 and propidium iodide. Overlays included phase contrast images. All confocal images were processed using ImageJ.
# Biofilm viability was assayed by XTT reduction and calculated as follows:
# [formula] where background wells contained XTT solution only; untreated wells received cells only, with no added drug.
# [3] = tested on: C. albicans DAY185 planktonic cells; assay: Planktonic cell growth and viability; type: cell-based, Candida albicans; settings: 0.06 μg per ml
# Procedure: Small arrows (FIG. 1B and FIG. 1C) denote chains of yeast cells. Note the microcolonies apparent in the control culture at 3 hours (FIG. 2B) and 9 hours (FIG. 2C) denoted by the large arrows. […] Under these conditions, some yeast cells formed short linear chains, but there were few germ tubes, and the culture never developed true hyphae. […] When germ tubes were allowed to emerge before treatment with xanthochymol, the germ tubes elongated and branched for several hours. In contrast, when C. albicans DAY185 planktonic cells were grown in YPD in the presence or absence of either Garcinia benzophenone (70 μg per ml), there was no significant effect on the growth or viability.
# pCAF = pCAF (Homo sapiens, UniProt Q92831); settings: cited from earlier work
# pCAF, sequence (Q92831 whole entry, species assumed): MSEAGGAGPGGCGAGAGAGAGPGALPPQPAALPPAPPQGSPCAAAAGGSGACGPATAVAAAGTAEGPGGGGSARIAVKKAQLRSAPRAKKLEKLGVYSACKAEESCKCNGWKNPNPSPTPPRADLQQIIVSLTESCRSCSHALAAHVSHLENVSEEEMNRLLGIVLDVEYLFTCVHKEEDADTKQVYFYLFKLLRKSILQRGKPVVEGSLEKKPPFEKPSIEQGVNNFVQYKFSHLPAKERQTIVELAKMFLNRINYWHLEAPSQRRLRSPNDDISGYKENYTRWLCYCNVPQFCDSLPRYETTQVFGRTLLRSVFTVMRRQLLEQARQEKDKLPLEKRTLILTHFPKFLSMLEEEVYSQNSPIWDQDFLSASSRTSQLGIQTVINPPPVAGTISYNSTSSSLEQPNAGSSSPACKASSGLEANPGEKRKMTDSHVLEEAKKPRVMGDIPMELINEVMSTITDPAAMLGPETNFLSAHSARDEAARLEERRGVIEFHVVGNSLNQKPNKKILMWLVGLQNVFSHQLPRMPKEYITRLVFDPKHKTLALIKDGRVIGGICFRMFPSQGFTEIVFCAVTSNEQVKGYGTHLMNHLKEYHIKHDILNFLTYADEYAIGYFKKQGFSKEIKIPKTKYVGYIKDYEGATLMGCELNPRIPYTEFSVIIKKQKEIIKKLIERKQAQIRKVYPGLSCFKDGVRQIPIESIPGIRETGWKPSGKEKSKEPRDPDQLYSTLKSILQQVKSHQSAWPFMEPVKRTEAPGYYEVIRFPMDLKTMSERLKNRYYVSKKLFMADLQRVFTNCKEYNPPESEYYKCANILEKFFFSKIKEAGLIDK
# [4] = molecular target: histone acetyltransferase (HAT) p300 (Homo sapiens, UniProt Q09472); settings: cited from earlier work
# histone acetyltransferase (HAT) p300, sequence (Q09472 whole entry): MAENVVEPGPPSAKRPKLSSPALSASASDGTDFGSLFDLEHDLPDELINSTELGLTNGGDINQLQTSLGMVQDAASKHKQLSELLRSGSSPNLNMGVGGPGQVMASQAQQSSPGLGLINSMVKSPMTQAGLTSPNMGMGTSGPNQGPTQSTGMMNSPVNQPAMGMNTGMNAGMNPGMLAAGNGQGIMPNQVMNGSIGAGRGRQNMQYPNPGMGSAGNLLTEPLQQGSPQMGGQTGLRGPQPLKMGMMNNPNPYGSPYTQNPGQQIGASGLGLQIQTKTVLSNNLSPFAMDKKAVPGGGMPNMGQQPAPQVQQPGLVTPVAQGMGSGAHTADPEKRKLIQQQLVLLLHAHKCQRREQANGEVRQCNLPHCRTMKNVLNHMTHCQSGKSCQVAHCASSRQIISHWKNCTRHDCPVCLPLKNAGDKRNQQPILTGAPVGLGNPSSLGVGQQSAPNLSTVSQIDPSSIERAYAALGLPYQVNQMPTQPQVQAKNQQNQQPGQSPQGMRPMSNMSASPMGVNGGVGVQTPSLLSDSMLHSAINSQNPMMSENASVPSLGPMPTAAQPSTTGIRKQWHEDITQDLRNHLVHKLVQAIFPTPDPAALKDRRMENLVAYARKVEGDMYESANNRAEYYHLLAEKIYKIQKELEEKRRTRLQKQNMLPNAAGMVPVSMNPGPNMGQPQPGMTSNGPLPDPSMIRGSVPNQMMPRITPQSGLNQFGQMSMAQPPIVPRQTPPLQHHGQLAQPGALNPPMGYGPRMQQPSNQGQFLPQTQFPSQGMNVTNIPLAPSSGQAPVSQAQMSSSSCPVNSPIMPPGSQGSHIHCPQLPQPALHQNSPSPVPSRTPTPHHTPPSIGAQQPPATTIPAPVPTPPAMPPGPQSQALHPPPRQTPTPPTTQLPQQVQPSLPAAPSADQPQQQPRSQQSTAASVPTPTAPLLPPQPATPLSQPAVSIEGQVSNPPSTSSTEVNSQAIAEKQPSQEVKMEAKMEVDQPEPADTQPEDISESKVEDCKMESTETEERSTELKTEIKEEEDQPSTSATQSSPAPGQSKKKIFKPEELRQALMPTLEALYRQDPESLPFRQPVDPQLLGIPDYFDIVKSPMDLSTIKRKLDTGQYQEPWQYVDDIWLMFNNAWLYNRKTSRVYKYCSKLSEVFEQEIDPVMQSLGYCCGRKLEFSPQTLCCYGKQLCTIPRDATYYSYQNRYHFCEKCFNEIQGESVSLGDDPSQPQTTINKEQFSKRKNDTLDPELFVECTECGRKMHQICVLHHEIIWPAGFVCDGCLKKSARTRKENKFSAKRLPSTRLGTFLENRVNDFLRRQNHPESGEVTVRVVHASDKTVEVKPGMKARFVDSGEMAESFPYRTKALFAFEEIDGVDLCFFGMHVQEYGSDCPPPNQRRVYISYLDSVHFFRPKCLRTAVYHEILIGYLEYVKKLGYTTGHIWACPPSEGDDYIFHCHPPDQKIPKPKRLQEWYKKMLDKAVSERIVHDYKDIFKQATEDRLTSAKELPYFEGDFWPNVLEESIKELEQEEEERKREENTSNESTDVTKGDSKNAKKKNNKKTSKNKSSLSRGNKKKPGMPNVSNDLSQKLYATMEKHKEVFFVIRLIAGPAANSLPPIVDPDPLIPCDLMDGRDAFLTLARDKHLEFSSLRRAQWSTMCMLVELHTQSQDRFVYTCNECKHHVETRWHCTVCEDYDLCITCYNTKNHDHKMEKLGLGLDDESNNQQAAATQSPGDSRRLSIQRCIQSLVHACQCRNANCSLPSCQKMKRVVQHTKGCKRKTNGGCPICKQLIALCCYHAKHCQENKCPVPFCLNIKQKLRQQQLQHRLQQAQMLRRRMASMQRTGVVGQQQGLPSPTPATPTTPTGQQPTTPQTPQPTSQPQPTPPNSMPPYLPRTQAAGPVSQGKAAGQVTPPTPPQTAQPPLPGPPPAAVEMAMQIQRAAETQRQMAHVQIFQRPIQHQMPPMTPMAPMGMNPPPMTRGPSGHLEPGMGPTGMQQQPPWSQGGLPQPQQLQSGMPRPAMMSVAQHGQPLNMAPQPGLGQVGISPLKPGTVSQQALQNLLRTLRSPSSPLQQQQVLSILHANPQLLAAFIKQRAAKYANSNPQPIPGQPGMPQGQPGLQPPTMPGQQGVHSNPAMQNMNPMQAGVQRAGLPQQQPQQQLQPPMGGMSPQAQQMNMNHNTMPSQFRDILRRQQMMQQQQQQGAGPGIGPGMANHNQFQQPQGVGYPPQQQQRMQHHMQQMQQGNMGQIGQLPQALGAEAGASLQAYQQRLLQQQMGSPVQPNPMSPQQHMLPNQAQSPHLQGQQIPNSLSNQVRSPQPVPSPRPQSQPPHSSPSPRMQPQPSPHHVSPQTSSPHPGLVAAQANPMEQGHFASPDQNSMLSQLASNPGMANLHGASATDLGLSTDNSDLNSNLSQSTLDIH
compound,measurement,setting,value
OC(Cn1cncn1)(Cn1cncn1)c1ccc(F)cc1F [fluconazole],reduction of biofilm activity,[1],20%
same,killing of biofilm cells by microscopy,"[2]; 24-h biofilms, 24 h of exposure, confocal LIVE/DEAD",minimal effect
same,reduction in viability,"[2]; 24-h biofilms, fluconazole as high as 1,024 μg per ml, XTT assay",15%
same,IC50,"[2]; Candida albicans, 24 h, read-out: fluconazole IC50",13 µg/mL
same,EC50,"[2]; Candida albicans, read-out: fluconazole EC50, mature biofilms, fluconazole alone",> 1020 µg/mL
same,EC50,"[2]; Candida albicans, read-out: fluconazole EC50, mature biofilms, with xanthochymol",13 µg/mL
CC[C@H](C)C[C@H](C)CCCCCCCCC(=O)N[C@H]1C[C@@H](O)[C@@H](NCCN)NC(=O)[C@@H]2[C@@H](O)CCN2C(=O)[C@H]([C@H](O)CCN)NC(=O)[C@H]([C@H](O)[C@@H](O)c2ccc(O)cc2)NC(=O)[C@@H]2C[C@@H](O)CN2C(=O)[C@H]([C@@H](C)O)NC1=O [caspofungin],killing of biofilm (positive control),[2]; 0.06 μg per ml,less effective against a biofilm
same,killing of planktonic yeast phase cells,[3],showed killing
C=C(C)CC[C@@H](C[C@@]12C[C@@H](CC=C(C)C)C(C)(C)[C@@](CC=C(C)C)(C(=O)C(C(=O)c3ccc(O)c(O)c3)=C1O)C2=O)C(=C)C [garcinol],inhibition of pCAF,pCAF,micromolar concentrations
same,inhibition of HAT p300,[4],micromolar concentrations
